These results are taken from patent US7776899B2, “Methods for treatment of erectile dysfunction” (Repros Therapeutics Inc., priority 1998, dated 2010).

For data set [1] the following is noted: pH 7.48.
Description: (§1) A 0.1 N solution of NaOH was used to adjust the pH to the indicated values. These solutions were shaken for about 10 minutes then held at room temperature overnight in order to allow maximum dissolution of drugs in the buffer. […] HPLC was performed using a C18 column having a mobile phase of buffer (5 mM NaH2PO4 and 5 mM octane sulfonic acid, pH 3) in 30% acetonitrile with a flow rate of 1.5 ml/minute. The detection wavelength was 210 nm.
A short description of another data set: physchem. The settings on record: thermodynamic from solid.

The structures appear in SMILES notation. Structures can show the parent of a compound that is named as a salt.

Description for physchem: as §1

In the case of `COc1ccc(Cc2nccc3cc(OC)c(OC)cc23)cc1OC` [Papaverine, papaverine hydrochloride], the “In Solution (solubility in mixture)” value in data set [1] was 170 µg/mL. For the same compound, the solubility in the data set “physchem” (pH 3.91, aqueous buffer, In Solution (solubility in mixture)) was 36800 µg/mL; in the data set “physchem” (pH 3.91, aqueous buffer, solubility) it was around 36800 µg/mL; in “physchem” (pH 4.35, aqueous buffer, In Solution (solubility in mixture)) it was 7750 µg/mL; in “physchem” (pH 5.04, aqueous buffer, In Solution (solubility in mixture)), 700 µg/mL; in “physchem” (pH 7.48, aqueous buffer, In Solution (solubility in mixture)) it was around 200 µg/mL; in the data set “physchem” (pH 7.65, aqueous buffer, In Solution (solubility in mixture)), 200 µg/mL.

The solubility is the concentration that dissolves in the medium under given conditions.
